Experimental data as given in patent publication US9987294B2, “Mitochondria-targeted anti-tumor agents” (University of Massachusetts, priority 2007, dated 2018).
“Also recorded” adds a separate entry of the source. Where a name gives a salt, the structure may show the parent alone. Where no end group is shown, it is not given here. [ ]: non-standard residue; d: D form.

Tests used:
[1] = system: normal human fibroblast cell types (WS-1, HGF, HFF); assay: Cell viability by MTT, normal human fibroblast cell types; conditions: concentrations comparable to those killing tumor cells
Protocol: Changes in protein expression in the various experiments of siRNA targeting were assessed by Western blotting. For analysis of TRAP-1-directed cytoprotection, primary nontransformed human fibroblasts HFF and WS-1 were transfected with control pcDNA3 or TRAP-1 cDNA by lipofectamine for 24 hours, exposed to increasing concentrations (0-1 μM) of the cell death stimulus staurosporine (STS), and analyzed for cell viability after additional 24 hours incubation by MTT. For analysis of apoptosis, p53+/+ or p53−/−HCT116 cells were treated with control or ANT-GA (100 μM), and analyzed for DEVDase activity (CaspaTag) and propidium iodide staining by simultaneous multiparametric flow cytometry, as described (Dohi et al., J. Clin. Invest. 114(8):1117-27, (2004); Plescia et al., Cancer Cell, 7:457-468, (2005)).

[2] = system: tumor mitochondria; assay: Cytochrome c release from drug-treated isolated tumor mitochondria; assay type: biochemical; conditions: 3 hours (FIG. 16D)
Protocol: Tumor cell types were treated with controls or the various Hsp90 antagonists, and cytosolic extracts were harvested at increasing time intervals between 5-30 minutes and analyzed by Western blotting. For experiments in a cell-free system, purified mitochondria (20 μg) were suspended in 500 μl of SB buffer (0.2 M sucrose, 10 mM Tris-MOPS, pH 7.4, 5 mM succinate, 1 mM sodium phosphate, 10 μM EGTA-Tris, and 2 μM rotenone). […] At the end of each incubation reaction, mitochondria and supernatants were separated by centrifugation at 6,000×g for 10 minutes, and analyzed by Western blotting.
(§1) The fluorescence intensity after treatment with 2 mM CaCl2 corresponded to a fully depolarized state. Alternatively, H460 cells were labeled with the fluorescent dye JC-1 (Molecular Probes), and analyzed for changes in red/green (F1-2/F1-1) fluorescence ratio after treatment with the various agents, by multiparametric flow cytometry. Cytochrome c content in pellets or supernatants of drug-treated isolated mitochondria was determined by Western blotting.

[3] = system: isolated tumor mitochondria; assay: Inner membrane potential of TMRM-loaded tumor mitochondria; assay type: biochemical
Protocol: as §1

[4] = system: H460 lung adenocarcinoma xenograft tumors; assay: Xenograft tumor growth, H460; assay type: in vivo, mice; conditions: i.p.; G4 and 17-AAG 2-3 mg/kg twice daily, G1 30-50 mg/Kg daily, TPP 10 mg/Kg daily
Protocol: To create the models used in this example, HL60 (10×10^6) or H460 (4×10^6) cells suspended in sterile PBS (200 μl) were injected subcutaneously into both flanks of 10 week-old CB17 SCID/beige (Taconic Farms) immunocompromised female mice. Alternatively, MDA-MB-231 cells (5×10^6) suspended in 200 μl of 50% Matrigel (BD Biosciences) were used for subcutaneous injection in CB17 SCID/beige mice. When superficial tumors reached volumes of 100-150 mm^3, animals were randomized in two groups (2 tumors/mouse, 3 animals/group), and treated with vehicle (DMSO) or Gamitrinib dissolved in 20% Cremophor EL (Sigma) in PBS by intraperitoneal (i.p.) injection. Gamitrinib-G4 was used as sterile i.p. injections with the following schedules: HL60 xenografts, 2 mg/Kg twice daily; H460 xenografts, 2 mg/kg twice daily for d 0, 2.5 mg/kg twice daily for d 1, 3.0 mg/kg twice daily for the duration of treatment; MDA-MB-231 xenografts, 2 mg/Kg twice daily for d 0-2, 2.5 mg/Kg twice daily for d 3-5, and 3 mg/Kg twice daily throughout the rest of the treatment. 17-AAG was dissolved in 20% Cremophor EL and used as systemic i.p. injections with the same dose-escalating regimen as Gamitrinib-G4 in H460 xenograft studies. Gamitrinib-G1 was used with following schedules: 30 mg/Kg daily (d 0-2), and 50 mg/Kg daily for the rest of treatment. Gamitrinib-TPP was used as i.p. injections at 10 mg/Kg daily throughout the duration of the experiment. Tumor measurements were taken daily with a caliper, and tumor volume was calculated with the formula ([length in millimeters]×[width in millimeters]^2)/2. Mice in the various treatment groups were weighed at the beginning and at the end of each experiment.

[5] = system: lung adenocarcinoma H460 cells; assay: Cell viability by MTT, H460; assay type: cell-based, human; conditions: 3 hour exposure
Protocol: (§2) Modulation of cell viability was determined by MTT (Kang et al., “Regulation of tumor cell mitochondrial homeostasis by an organelle-specific Hsp90 chaperone network,” Cell, 131:257-270 (2007)). For determination of apoptosis, cells were analyzed for caspase activity (DEVDase activity) and plasma membrane integrity (propidium iodide) using CaspaTag (Intergen, Burlington, Mass.), by multiparametric flow cytometry (Kang et al., “Regulation of tumor cell mitochondrial homeostasis by an organelle-specific Hsp90 chaperone network,” Cell, 131:257-270 (2007)).

[6] = system: breast adenocarcinoma SKBr3 cells; assay: Metabolic activity by MTT, SKBr3; assay type: cell-based; conditions: 10 μM; by 48 hours and throughout a 96-hours interval
Protocol: as §2

[7] = system: Ras-transformed NIH3T3 mitochondria; assay: Mitochondrial membrane potential of TMRM-loaded isolated mitochondria; assay type: biochemical
Protocol: Raji cells were treated with Shepherdin or control scrambled peptidomimetic (100 μM) or 17-AAG (5 μM), loaded with the mitochondrial membrane potential-sensitive fluorescent dye JC-1, and analyzed for changes in green/red fluorescence ratio by flow cytometry. For experiments in a cell-free system, purified mitochondria isolated from primary normal cells, various tumor cells types, or normal mouse organs were suspended in SB buffer. […] For these experiments, TMRM-loaded mitochondria in SB buffer were allowed to reach stable fluorescence, which was set as fully polarized state (maximum membrane potential). The fluorescence intensity after treatment with 2 mM CaCl2 was set as minimum membrane potential (fully depolarized state). Changes in fluorescence intensity after each treatment were plotted as a ratio between maximum and minimum membrane potential.

[8] = system: TRAP-1 and Hsp90; assay: Fractionation of Raji mitochondrial extracts over Shepherdin-Sepharose or scrambled peptidomimetic-Sepharose; assay type: binding, human; conditions: coupled to Sepharose beads, Western blotting

In the case of `CC[C@H](C)[C@H](NC(=O)[C@H](CCCCN)NC(=O)[C@@H](NC(=O)[C@H](CCC(N)=O)NC(=O)[C@@H](N)CCCNC(=N)N)[C@@H](C)CC)C(=O)N[C@@H](Cc1c[nH]c2ccccc12)C(=O)N[C@@H](Cc1ccccc1)C(=O)N[C@@H](CCC(N)=O)C(=O)N[C@@H](CC(N)=O)C(=O)N[C@@H](CCCNC(=N)N)C(=O)N[C@@H](CCCNC(=N)N)C(=O)N[C@@H](CCSC)C(=O)N[C@@H](CCCCN)C(=O)N[C@@H](Cc1c[nH]c2ccccc12)C(=O)N[C@@H](CCCCN)C(=O)N[C@@H](CCCCN)C(=O)N[C@@H](CSC1CC(=O)N(CCCC(=O)NCCCNC2=C3C[C@@H](C)C[C@H](OC)[C@H](O)[C@@H](C)/C=C(\C)[C@H](OC(N)=O)[C@@H](OC)/C=C\C=C(/C)C(=O)NC(=CC2=O)C3=O)C1=O)C(N)=O` (some centres unmarked) [ANT-GA], the “viability of normal human fibroblast cell types” value [1] is reported as “none of the compounds affected the viability of various normal human fibroblast cell types”.

For `COc1c(C)cnc(Cn2cnc3c(Cl)nc(N)nc32)c1C` [BIIB021], the “cytochrome c release from mitochondria” value [2] was “had no effect on cytochrome c release”.

With `CO[C@H]1/C=C\C=C(/C)C(=O)NC2=CC(=O)C(NCCN(C)C)=C(C[C@@H](C)C[C@H](OC)[C@H](O)[C@@H](C)/C=C(\C)[C@@H]1OC(N)=O)C2=O` [DMAG, 17-(dimethylaminoethylamino)-17-demethoxygeldanamycin] the “mitochondrial inner membrane potential” value [3] was “did not affect mitochondrial membrane potential”.

In the case of `COC1=C2C[C@@H](C)C[C@H](OC)[C@H](O)[C@@H](C)/C=C(\C)[C@H](OC(N)=O)[C@@H](OC)/C=C\C=C(/C)C(=O)NC(=CC1=O)C2=O` [GA, geldanamycin], the “viability of normal human fibroblast cell types” value [1] is reported as “none of the compounds affected the viability of various normal human fibroblast cell types”.

For `CO[C@H]1/C=C\C=C(/C)C(=O)NC2=CC(=O)C(NCCCNC(=O)CCCN3C(=O)CC(SC[C@H]4CCN5CC[C@H](CO[Si](c6ccccc6)(c6ccccc6)C(C)(C)C)N=C5N4)C3=O)=C(C[C@@H](C)C[C@H](OC)[C@H](O)[C@@H](C)/C=C(\C)[C@@H]1OC(N)=O)C2=O` (stereo partly drawn) [Gamitrinib-G1, (4E,6Z,8S,9S,10E,12S,13R,14S,16R)-19-(3-(4-(3-(((2R,8R)-8-((tert-butyldiphenylsilyloxy)methyl)-2,3,4,6,7,8-hexahydro-1H-pyrimido[1,2-a]pyrimidin-2-yl)methylthio)-2,5-dioxopyrrolidin-1-yl)butanamido)propylamino)-13-hydroxy-8,14-dimethoxy-4,10,12,16-tetramethyl-3,20,22-trioxo-2-azabicyclo[16.3.1]docosa-1(21),4,6,10,18-pentaen-9-yl carbamate, hexafluorophosphate salt], the tumor growth [4] was “also inhibited lung cancer growth in vivo” and the cell viability [5] was “had no effect”.

With `CO[C@H]1/C=C\C=C(/C)C(=O)NC2=CC(=O)C(NCCCNC(=O)CCCN3C(=O)CC(SC[C@H]4CCN5CC[C@H](CSC[C@H]6CCN7CC[C@H](CO[Si](c8ccccc8)(c8ccccc8)C(C)(C)C)N=C7N6)N=C5N4)C3=O)=C(C[C@@H](C)C[C@H](OC)[C@H](O)[C@@H](C)/C=C(\C)[C@@H]1OC(N)=O)C2=O` (some centres unmarked) [Gamitrinib-G2] the cell viability [5] was “had intermediate activity”.

For `CO[C@H]1/C=C\C=C(/C)C(=O)NC2=CC(=O)C(NCCCNC(=O)CCCN3C(=O)CC(SC[C@H]4CCN5CC[C@H](CSC[C@H]6CCN7CC[C@H](CSC[C@H]8CCN9CC[C@H](CO[Si](c%10ccccc%10)(c%10ccccc%10)C(C)(C)C)N=C9N8)N=C7N6)N=C5N4)C3=O)=C(C[C@@H](C)C[C@H](OC)[C@H](O)[C@@H](C)/C=C(\C)[C@@H]1OC(N)=O)C2=O.F[P-](F)(F)(F)(F)F.F[P-](F)(F)(F)(F)F.F[P-](F)(F)(F)(F)F` (some centres unmarked) [Gamitrinib-G3], the cell viability [5] was “complete loss of cell viability” and the IC50 ([5]; read-out: IC50, loss of cell viability) was roughly 500 nM.

With `CO[C@H]1/C=C\C=C(/C)C(=O)NC2=CC(=O)C(NCCCCCC[P+](c3ccccc3)(c3ccccc3)c3ccccc3)=C(C[C@@H](C)C[C@H](OC)[C@H](O)[C@@H](C)/C=C(\C)[C@@H]1OC(N)=O)C2=O` [Gamitrinib-TPP, (4E,6Z,8S,9S,10E,12S,13R,14S,16R)-19-(6-(triphenylphosphonio)hexylamino)-13-hydroxy-8,14-dimethoxy-4,10,12,16-tetramethyl-3,20,22-trioxo-2-azabicyclo[16.3.1]docosa-1(21),4,6,10,18-pentaen-9-yl carbamate hexafluorophosphate] the “mitochondrial inner membrane potential” value [3] was “promptly depolarized tumor mitochondria”, the tumor growth [4] was “also inhibited lung cancer growth in vivo” and the metabolic activity [6] was “comparably reduced metabolic activity”. The cell viability [5] was “had intermediate activity”.

`C=CCNc1c(O)cc2c(O)c1C[C@@H](C)C[C@H](OC)[C@H](O)[C@@H](C)/C=C(\C)[C@H](OC(N)=O)[C@@H](OC)/C=C\C=C(/C)C(=O)N2` [IPI-504] was tested, and the “cytochrome c release from mitochondria” value [2] was “had no effect on cytochrome c release”.

In the case of `CCNC(=O)c1noc(-c2cc(C(C)C)c(O)cc2O)c1-c1ccc(CN2CCOCC2)cc1` [NVP-AUY922], the “cytochrome c release from mitochondria” value [2] is reported as “had no effect on cytochrome c release”.

With “Sheph: Shepherdin lacking the Antennapedia cell-penetrating sequence ([dL][dF][dA][dC]G[dS][dS][dH][dK])” the “membrane potential of mitochondria” value [7] was “induces loss of mitochondrial membrane potential in transformed cells” and the “association of Hsp90 and TRAP-1 with immobilized peptidomimetic” value [8] was “specific elution of both TRAP-1 and Hsp90; also recorded: Hsp90 and TRAP-1 are bound by Shepherdin-Sepharose”.
